According to US20240252488A1 (KOREA RESEARCH INSTITUTE OF CHEMICAL TECHNOLOGY, priority 2020, published 2024):

Legend:
FADD−/− Jurkat cells = assay: Necroptosis inhibition assay, TNF-α-induced necroptosis (CellTiter-Glo 2.0); type: cell-based, human; conditions: TNF-α 15 ng/mL; for Necroptosis inhibition assay (Rescue %) 1 μM: compound 1 μM; for Necroptosis inhibition assay (Rescue %) 10 μM: compound 10 μM
In short: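 Compound is added to cells at final concentrations of 0.1, 1 and 10 μM and left 30 minutes at room temperature. Necroptosis is induced with 15 ng/mL TNF-α, culture continues 20 to 24 hours at 37° C, and ATP-based luminescence reports viability.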

MLKL [1] = biological target: T1, MLKL (Homo sapiens, UniProt Q8NB16); assay: MLKL degradation assay in HepG2 cell line (western blot); type: cell-based; parameters: endogenous in cells; host or cells: HepG2 or HaCaT; conditions: cell line not given; for Degradation assay (Degradation %) 1 μM: compound 1 μM; for Degradation assay (Degradation %) 10 μM: compound 10 μM
T1 sequence (Q8NB16 1-471): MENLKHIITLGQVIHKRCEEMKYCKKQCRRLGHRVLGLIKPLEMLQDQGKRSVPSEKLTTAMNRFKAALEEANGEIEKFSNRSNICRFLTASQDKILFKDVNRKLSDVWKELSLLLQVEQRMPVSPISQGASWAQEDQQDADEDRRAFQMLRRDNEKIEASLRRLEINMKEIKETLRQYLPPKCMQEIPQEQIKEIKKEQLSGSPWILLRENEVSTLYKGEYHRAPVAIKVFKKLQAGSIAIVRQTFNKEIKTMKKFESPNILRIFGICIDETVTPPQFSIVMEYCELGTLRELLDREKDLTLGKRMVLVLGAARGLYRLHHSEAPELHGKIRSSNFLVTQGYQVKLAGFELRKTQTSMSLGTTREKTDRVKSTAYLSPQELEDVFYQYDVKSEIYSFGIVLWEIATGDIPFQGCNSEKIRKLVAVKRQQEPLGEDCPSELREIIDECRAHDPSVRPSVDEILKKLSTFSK
In short: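 Chemiluminescent western blot signal reports remaining MLKL protein in HepG2 cells after 20-24 h treatment with compound at a final 1 or 10 μM. Equal protein (10-15 μg, BCA) is loaded per lane.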

MLKL [2] = biological target: T1, MLKL; assay: Measurement of binding affinity with MLKL receptor (competitive binding assay, Kd); parameters: made in house; host or cells: HEK 293 cell line (T7 phage in E. coli BL21-derived host is also described)
In short: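 Kd from an immobilized-ligand competition format: the DNA-tagged kinase from HEK 293 expression is eluted and quantified by qPCR. Compounds added from 111× DMSO stocks, final DMSO 0.9%.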

Row | Degradation assay (Degradation %) 1 μM (MLKL [1]) | Degradation assay (Degradation %) 10 μM (MLKL [1]) | Kd (MLKL [2]) | SMILES | Necroptosis inhibition assay (Rescue %) 1 μM (FADD−/− Jurkat cells) | Necroptosis inhibition assay (Rescue %) 10 μM (FADD−/− Jurkat cells)
1 | 57.84% | 63.11% | 4.9 nM | Nc1ncc(-c2cnn(C3CCN(C(=O)C4CCN(C(=O)CNc5cccc6c5C(=O)N(C5CCC(=O)NC5=O)C6=O)CC4)CC3)c2)nc1C(=O)OC(C(=O)Nc1ccc(F)cc1)c1ccccc1 (stereo not shown) [TDH-275, 2-((4-fluorophenyl)amino)-2-oxo-1-phenylethyl 3-amino-6-(1-(1-(1-((2-(2,6-dioxopiperidin-3-yl)-1,3-dioxoisoindolin-4-yl)glycyl)piperidine-4-carbonyl)piperidin-4-yl)-1H-pyrazol-4-yl)pyrazine-2-carboxylate] | 69.59% | 69.98%
2 | 40.52% | 53.39% | 1.5 nM | Nc1ncc(-c2cnn(C3CCN(C(=O)C4CCN(C(=O)COc5cccc6c5C(=O)N(C5CCC(=O)NC5=O)C6=O)CC4)CC3)c2)nc1C(=O)OC(C(=O)Nc1ccc(F)cc1)c1ccccc1 (stereo not shown) [TDH-277, 2-((4-fluorophenyl)amino)-2-oxo-1-phenylethyl 3-amino-6-(1-(1-(1-(2-((2-(2,6-dioxopiperidin-3-yl)-1,3-dioxoisoindolin-4-yl)oxy)acetyl)piperidine-4-carbonyl)piperidin-4-yl)-1H-pyrazol-4-yl)pyrazine-2-carboxylate] | 43.59% | 13.88%

More lines, now with the values behind:

Row | SMILES | Degradation assay (Degradation %) 1 μM (MLKL [1]) | Degradation assay (Degradation %) 10 μM (MLKL [1]) | Kd (MLKL [2]) | Necroptosis inhibition assay (Rescue %) 1 μM (FADD−/− Jurkat cells) | Necroptosis inhibition assay (Rescue %) 10 μM (FADD−/− Jurkat cells)
3 | Nc1ncc(-c2cnn(C3CCN(C(=O)C4CCN(C(=O)CNc5ccc6c(c5)C(=O)N(C5CCC(=O)NC5=O)C6=O)CC4)CC3)c2)nc1C(=O)OC(C(=O)Nc1ccc(F)cc1)c1ccccc1 (stereo not shown) [TDH-276, 2-((4-fluorophenyl)amino)-2-oxo-1-phenylethyl 3-amino-6-(1-(1-(1-((2-(2,6-dioxopiperidin-3-yl)-1,3-dioxoisoindolin-5-yl)glycyl)piperidine-4-carbonyl)piperidin-4-yl)-1H-pyrazol-4-yl)pyrazine-2-carboxylate] | 78.62% | 75.61% | 3.6 nM | 75.36% | 70.49%
4 | Nc1ncc(-c2cnn(C3CCN(C(=O)C4CCN(C(=O)COc5ccc6c(c5)C(=O)N(C5CCC(=O)NC5=O)C6=O)CC4)CC3)c2)nc1C(=O)OC(C(=O)Nc1ccc(F)cc1)c1ccccc1 (stereo not shown) [TDH-278, 2-((4-fluorophenyl)amino)-2-oxo-1-phenylethyl 3-amino-6-(1-(1-(1-(2-((2-(2,6-dioxopiperidin-3-yl)-1,3-dioxoisoindolin-5-yl)oxy)acetyl)piperidine-4-carbonyl)piperidin-4-yl)-1H-pyrazol-4-yl)pyrazine-2-carboxylate] | 64.63% | 75.28% | 1.4 nM | 63.64% | 39.23%
5 | Nc1ncc(-c2cnn(C3CCN(C(=O)C4CCN(c5cccc6c5C(=O)N(C5CCC(=O)NC5=O)C6=O)CC4)CC3)c2)nc1C(=O)OC(C(=O)Nc1ccc(F)cc1)c1ccccc1 (stereo not shown) [TDH-279, 2-((4-fluorophenyl)amino)-2-oxo-1-phenylethyl 3-amino-6-(1-(1-(1-(2-(2,6-dioxopiperidin-3-yl)-1,3-dioxoisoindolin-4-yl)piperidine-4-carbonyl)piperidin-4-yl)-1H-pyrazol-4-yl)pyrazine-2-carboxylate] | 38.42% | 15.86% | 5 nM | 24.78% | 44.14%
